Assay results reported in patent US20210038732A1, “ANTICANCER MICRORNA AND LIPID FORMULATIONS THEREOF” (INTERNA TECHNOLOGIES B.V., priority 2018, published 2021).

Tests used:
[1] = tested on: 4T1 triple negative breast cancer tumors; assay: Primary tumor regrowth and survival after 4T1 tumor resection (Example 4.4); format: in vivo, mice
Protocol: Six to eight weeks old female BALB/c mice (Shanghai Lingchang Bio-Technology Co. Ltd, Shanghai, China) were injected with 3×10^5 4T1 mouse tumor cells in PBS (0.1 mL/mouse) into the mammary fat pad. At the time of randomization, the TVs ranged between 69.9 and 173.9 mm3 (median 105.7, IQR=100.7-125.4). Body weights and TVs (caliper measurements) were determined 2-3 times/week. After randomization (day 9 after tumor inoculation) mice received different treatments under different dosing regimen (see Table 9 for dosing scheme). For all groups, 4 mice are sacrificed 48h after the 2nd miRNA-193a injection in the first week and in the 2nd week. Primary tumors were surgically removed from the mammary fat pad on day 20 after inoculation. After a recovery period of 3 days, treatment was resumed for 6 more weeks until day 63. Re-growth of (distant) tumors was monitored in addition to BW, and mice were sacrificed if end-points were met.

[2] = tested on: A549, H460; assay: Cell viability (MTS assay or cell count); format: cell-based, human; details: 10 nM; NSCLC A549, H460; normalized to mock
Protocol: (§1) Depending on cancer cell type 3000-6000 cells were seeded in a 96 well plate. After cells attached, they were transfected with different concentrations of miRNA-193a and viability was measured at different time points. Viability measurement was performed using CellTiter 96 AQueous One Solution Cell Proliferation Assay (Promega). 20 μL of MTS reagent was added to 100 μL of media in each well in 96-well plate and incubated for 2 hours at 37° C. Absorbance was measured at 490 nm for each sample in 96 well plate reader.
(§2) Different biological effects of miRNA-193a-3p have been tested in various cancer cell lines (see Table 13). For this, various cells were treated with miRNA-193a at different concentrations (1, 3, 10 nM). For all experiments controls (untreated, mock and scrambled) were measured. […] Data shown in Table 13 are the results for miRNA-193a at 10 nM concentration at indicated time points. All the results have been quantified and normalized to the mock control.
(§3) miRNA-193a treatment in various cancer cell lines decreased cell viability over time as measured by either an MTS assay or by cell count. It enhanced apoptosis induction over time as measured by a caspase 3/7 apoptosis assay. […] It is of note that due to intrinsic characteristics and gene mutation status of each cell line, performing one method to detect apoptosis is not always ideal for all cell lines.

[3] = tested on: A2058; assay: Cell viability (MTS assay or cell count); format: cell-based, human; details: 10 nM; Melanoma A2058; normalized to mock
Protocol: as §1, §2, §3

[4] = tested on: HeP3B, SNU449; assay: Cell viability (MTS assay or cell count); format: cell-based, human; details: 10 nM, HCC HeP3B, normalized to mock
Protocol: as §1, §2, §3

[5] = tested on: Huh7; assay: Cell viability (MTS assay or cell count); format: cell-based, human; details: 10 nM; HCC Huh7; normalized to mock
Protocol: as §1, §2, §3

[6] = tested on: Panc-1; assay: Cell viability (MTS assay or cell count); format: cell-based; details: 10 nM; Pancreas Panc-1; normalized to mock
Protocol: as §1, §2, §3

[7] = tested on: HCT116; assay: Cell viability (MTS assay or cell count); format: cell-based; details: 10 nM; Colon HCT116; normalized to mock
Protocol: as §1, §2, §3

[8] = tested on: EMT6; assay: Cell viability (MTS assay or cell count); format: cell-based; details: 10 nM; TNBC EMT6; normalized to mock
Protocol: as §1, §2, §3

[9] = tested on: H1975; assay: Cell viability (MTS assay or cell count); format: cell-based; details: 10 nM; NSCLC H1975; normalized to mock
Protocol: as §1, §2, §3

[10] = tested on: H1299; assay: Cell viability (MTS assay or cell count); format: cell-based; details: 10 nM; NSCLC H1299; normalized to mock
Protocol: as §1, §2, §3

[11] = tested on: A549, H460, HEP3B, HUH7, A2058, BT549; assay: RNA-sequencing differential expression in six cancer cell lines; format: cell-based, human; details: for Down-regulated genes: adjusted P<0.1, 10 nM, 24h
Protocol: Six human cancer cell lines were cultured in appropriate media (Table 3) and seeded into 6-well plates 24h before transfection with 10 nM miRNA-193a-3p or mock using Lipofectamine RNAiMAX (Thermofisher). Reagents were aspirated 16h after transfection and cells were passaged into new 6-well plates. Media was aspirated 24h after transfection and plates were stored at −80° C. Three independent replicates were performed for each cell line.
RNA was isolated using the miRNeasy Mini kit (Qiagen). The procedure included on-column DNase treatment. RNA concentration was measured on NanodropOne. 150 ng of each independent replicate was pooled and 450 ng samples (Table) were submitted to GenomeScan BV (Leiden, The Netherlands).
PolyA enrichment was performed followed by next generation RNA-Sequencing using Illumina NovaSeq 6000 at GenomeScan BV. The data processing workflow included raw data quality control, adapter trimming, and alignment of short reads. The reference GRCh37.75.dna.primary_assembly was used for alignment of the reads for each sample. Based on the mapped locations in the alignment file the frequency of how often a read was mapped on a transcript was determined (feature counting). The counts were saved to count files, which serve as input for downstream RNA-Seq differential expression analysis.
Differential expression analysis was performed on the short read data set by GenomeScan BV. The read counts were loaded into the DESeq package v1.30.0, a statistical package within the R platform v3.4.4. DESeq was specifically developed to find differentially expressed genes between two conditions (mock versus miRNA-193a-3p) for RNA-Seq data with small sample size and over-dispersion. […]

[12] = tested on: subq human A2058 melanoma tumors; assay: Tumor growth inhibition, different doses and regimens, subq A2058 (Example 4.5); format: in vivo, mice; details: day 21
Protocol: Six to eight weeks old female BALB/c nude mice (Shanghai Lingchang Bio-Technology Co. Ltd, Shanghai, China) were unilaterally and subcutaneously injected in the right flank with 5×10^6 A2058 tumor cells in PBS (0.1 mL/mouse). At the time of randomization, the TVs ranged between 50.3 and 156.3 mm3 (median 104.8, IQR=91.9-127.1). After randomization, the mice received different miRNA-193a dosing concentrations under different dosing regimen (see Table 10 for dosing scheme). The BRAF-inhibitor vemurafenib was also included. Body weights and TVs (caliper measurements) were determined three times/week. *QDx3,QDx4=one injection per day for 3 or 4 consecutive days; BIW=twice a week, BID=twice daily. Po=per oral.

Substance: miRNA-193a: duplex of the miRNA-193a-3p of SEQ ID NO: 218 (mimic, sense) with antisense strand SEQ ID NO: 219; naked in vitro, formulated in vivo (sense UGGGACUUUGUAGGCCAGUUTT; antisense AACUGGCCUACAAAGUCCCAGU; chemistry not given here; listed as Homo sapiens)
- Tumor re-growth after tumor excision ([1]; formulated in diamino lipid nanoparticles, 10 mg/kg BIW iv): reduced tumor re-growth
- Mouse survival ([1]; formulated in diamino nanoparticles, 10 mg/kg BIW iv): positively affected mouse survival
- Mice that showed a tumor re-growth after primary tumor removal ([1]; primary tumor removal day 20, 10 mg/kg twice weekly for further 6 weeks): 1 out of 10
- Viability (96 h) [2]: ↓↓ (Viability < 50%)
- Viability (96 h) [3]: ↓↓ (Viability < 50%)
- Viability (96 h) [4]: ↓↓ (Viability < 50%)
- Viability (96 h) [5]: ↓↓ (Viability < 50%)
- Viability (96 h) [6]: ↓↓ (Viability < 50%)
- Viability (96 h) [7]: ↓↓ (Viability < 50%)
- Viability (96 h) [8]: ↓↓ (Viability < 50%)
- Viability (96 h) [9]: ↓↓ (Viability < 50%)
- Viability (96 h) [10]: ↓↓ (Viability < 50%)
- % Predicted ([11]; # cell lines =6): 83%
- Down-regulated genes ([11]; # cell lines =6): 35
- % Predicted ([11]; # cell lines ≥1): 58%
- Down-regulated genes ([11]; # cell lines ≥1): 352
- % Predicted ([11]; # cell lines ≥2): 65%
- Down-regulated genes ([11]; # cell lines ≥2): 282
- % Predicted ([11]; # cell lines ≥3): 67%
- Down-regulated genes ([11]; # cell lines ≥3): 242
- % Predicted ([11]; # cell lines ≥4): 66%
- Down-regulated genes ([11]; # cell lines ≥4): 218
- % Predicted ([11]; # cell lines ≥5): 63%
- Down-regulated genes ([11]; # cell lines ≥5): 181
- Tumor growth (relative tumor volume) ([12]; QDx3 6.7 mg/kg iv x3 weeks, nanoparticles according to the invention): significant reduction of tumor growth
- Tumor growth (relative tumor volume) ([12]; the other dosing regimen (10 mg/kg BIW; 5 mg/kg QDx4)): mild trend
